Reference: US20250375417A1, “OREXIN RECEPTOR 2 (OX2R) AGONIST FOR USE IN NARCOLEPSY TYPE 1 (NT1)” (TAKEDA PHARMACEUTICAL COMPANY LIMITED, priority 2024, published 2025)

Key:
Type in all cases: in vivo, human
[1] = tested on: participants with NT1; assay: Exit interviews after Week 8, Phase 2 NT1 trial; settings: most Compound A participants (n=21)
Method: Treatment Satisfaction Questionnaire for Medication (TSQM) and exit interview results from the study were evaluated to explore the impact of Compound A treatment on individuals with ICSD-3-confirmed NT1. Participants aged 18-70 years, with an Epworth Sleepiness Scale (ESS) score>12, and ≥4 partial/complete episodes of cataplexy/week were included in the trial. Participants were randomized to oral Compound A (0.5 mg twice 3 hours apart, 2 mg twice 3 hours apart, 2 mg then 5 mg 3 hours later, or 7 mg once daily), or placebo.
FIG. 19 and FIG. 20 show the results of exit interview outcomes at Week 8. […] Symptoms rated as most important to improve from baseline were EDS, cataplexy and impaired cognitive function (FIG. 19); most frequently cited impacts were work/school-related, social/leisure activities and general quality of life (FIG. 20). Changes in impacts were meaningful for Compound A-treated participants but not for placebo-treated participants. Overall, 94.7% of Compound A-treated participants (18/19 respondents) would be willing to recommend Compound A to others with narcolepsy.

[2] = tested on: participants with NT1; assay: Efficacy (SOL-MWT, ESS, WCR), LTE study interim analysis, NT1 participants; settings: all Compound A doses, up to 6 months (FIG. 31)
Method: An nPSG and MWT were conducted on Day 181 and 182, respectively. Cognitive testing were conducted at Week 26 (6 months). ESS and NSS-CT were collected monthly starting at Week 4 and then approximately every 3 months after Week 12. There were additional ESS measurements at Week 2 and in the first week after drug discontinuation. PGI-I and CGI-I were collected approximately every 3 months starting at Week 12. Other patient-reported outcome measures were administered approximately every 6 months up until Year 1.
Participants with NT1 also completed the Cataplexy e-diary daily over 2-week periods to capture the weekly cataplexy rate before the next visit in-clinic. The Cataplexy e-diary was completed at approximately 3-month intervals during Year 1 and at 6-month intervals during Year 2.
Participants completing either Example 1 or Example 2 with ≤3 months between parent study-end and LTE screening could enroll. Primary endpoint is the occurrence of treatment-emergent adverse events (TEAEs); secondary endpoints are change from baseline (parent study) in sleep onset latency on the Maintenance of Wakefulness Test (SOL-MWT), Epworth Sleepiness Scale (ESS) score, and weekly cataplexy rate (WCR). Participants with NT1 receive oral Compound A 0.5 mg twice 3 hours apart, 2 mg twice 3 hours apart, 2 mg then 5 mg 3 hours apart, or 7 mg once daily. […]

[3] = tested on: participants with NT2; assay: ESS total score, Phase 2 NT2 trial; settings: not statistically significant (p>0.05)
Excerpt: In some aspects of the methods described herein, the subject experiences a lower Epworth Sleepiness Scale (ESS) total score after a treatment period compared to an untreated subject. The ESS is a subjective, self-administered scale that has been validated and used extensively as a key endpoint in studies in patients with narcolepsy to measure excessive daytime sleepiness (EDS). The ESS provides individuals with 8 different situations of daily life and asks them how likely they are to fall asleep in those situations (scored 0 to 3) and to try to imagine their likelihood of dozing even if they have not actually been in the identical situation; the scores are summed to give an overall score of 0 to 24. Higher scores indicate stronger subjective daytime sleepiness, and scores below 10 are considered to be within the reference range.
Randomization was stratified by region. Starting on the morning of Day 1, the study drug was administered at approximately the same time each day for 8 weeks.
In this study, the interventions includes: • Dose Regimen 1:2 mg followed by 2 mg approximately 3 hours apart. • Dose Regimen 2:2 mg followed by 5 mg approximately 3 hours apart or 7 mg once daily. • Other products required for the study: placebo.
Eligible participants were age 18-70 years, with Epworth Sleepiness Scale (ESS) score>12 and no other current EDS-related medical conditions. […]

[4] = tested on: participants with NT1; assay: Clinical and Patient Global Impression (CGI, PGI), Phase 2 NT1 trial; settings: Week 8, patients treated with Compound A
Excerpt: The Patient Global Impression Scale-Severity Scale (PGI-S) provides a participant-perceived assessment of overall symptoms (4-point Likert-type scale, “normal to “severe”) administered at baseline while the Patient Global Impression-Improvement Scale (PGI-I) provides a participant-perceived summary of global treatment effect on daytime sleepiness and cataplexy (7-point Likert-type scale, “very much improved” to “very much worse”) administered at different points during treatment.
The Clinical Global Impression Scale provides an overall clinician-determined summary measure of a participant's treatment experience that takes into account all available information, including knowledge of the participant's history, psychosocial circumstances, symptoms, behavior, and the impact of the symptoms on the participant's ability to function. The assessment consists of various subscales. One is the Clinical Global Impression-Severity (CGI-S). The CGI-S assesses the severity of overall narcolepsy symptoms. It uses a 7-point Likert-type scale ranging from “normal, not at all ill” to “among the most extremely ill patients.”
Another subscale is the Clinical Global Impression-Improvement (CGI-I), which assesses improvement of symptoms. The CGI-I asks clinicians to rate the extent to which their patients' current overall narcolepsy symptoms are improved (compared with the start of the study). […]

SMILES: CCS(=O)(=O)N[C@@H]1[C@H](Cc2cccc(-c3cc(F)cc(F)c3)c2F)N(C(=O)C(C)(C)O)CC1(F)F [Compound A, N-{(2S,3R)-4,4-difluoro-1-(2-hydroxy-2-methylpropanoyl)-2-[(2,3′,5′-trifluoro[1,1′-biphenyl]-3-yl)methyl]pyrrolidin-3-yl}ethanesulfonamide]
- Exit interview outcome: change in narcolepsy symptoms and functional impacts [1]: meaningful improvements in narcolepsy symptoms and functional impacts
- Efficacy on SOL-MWT, ESS and WCR over time [2]: maintenance of efficacy
- ESS total score change from baseline to Week 8 versus placebo ([3]; 2 mg/2 mg): −0.32 points
- ESS total score change from baseline to Week 8 versus placebo ([3]; 2/5 mg): −3.06 points
- Patients much/very much improved on the PGI and CGI [4]: > 70%
